Several values for one entry are separate records, joined by “and”; a condition that tells them apart may be missing. Equal entries are not always repeated.
Key:
CYP3A4 = CYP3A4 (Homo sapiens, UniProt P08684); test: Metabolism in transgenic HEK293 cells expressing CYP3A4; conditions: 24 h; for Quantification of metabolites generated from PCB28, 52, and 101: 20 µM parent PCB, supernatant
Method: (§1) For the generation of transgenic cell lines, we used semi-adherent HEK293 cells (DSMZ, ACC305, human embryonic kidney cells) which were cultured on a daily basis in DMEM medium supplemented with 10% (FCS) and 1% penicillin/streptomycin. In a first step CYP1A2, CYP2C8, CYP2C9, CYP3A4, CYP2A6, and CYP2E1 cDNA were cloned into the plasmid pcDNATM3.1/V5-His TOPO® using human liver RNA as a template and using the following primers: CYP1A2 for5′-[…]-3′, CYP1A2 rev 5′-[…]-3′; CYP2C8 for 5′-[…]-3′, CYP2C8 rev 5′-[…]-3′; CYP2C9 for 5′-[…]-3′, CYP2C9 rev 5′-[…]-3′; CYP3A4 for 5′-[…]-3′, CYP3A4 rev 5′-[…]-3′, CYP2A6 for 5′-[…]-3′, CYP2A6 rev 5′-[…]-3′; CYP2E1 for 5′-[…]-3′, CYP2E1 rev 5′-[…]-3′. Final constructs were verified with Sanger DNA sequencing and restriction digestion. For transfection, 3 × 10^6 HEK293 cells were pre-incubated in a 10 cm dish in DMEM medium with 10% FCS, but without antibiotics, for 18 to 24 h. When the cells reached approximately 70% confluency, they were transfected using TransIT-LT1 transfection reagent (Biozol, Eiching, Germany). The TransIT-LT1 reagent was warmed to room temperature and vortexed. 1.63 mL Opti-MEM, 16.25 µL plasmid DNA (1 µg/µL), and 48.75 µL TransIT-LT1 reagent were mixed and incubated for 15 to 30 min. The mixture was then added dropwise to the medium of the cells, and the cells were incubated again at 37 °C and 5% CO2. After 24 h, the medium was replaced with standard medium and geneticin was added for selection (1 mg/mL). Cells were selected for 6–8 weeks in bulk culture, and single cell clones were obtained subsequently by limiting dilution. Each clone was checked for insertion by PCR using genomic DNA as a template.
(§2) Parallel samples were run without the addition of PCBs. At a confluence of 80%, PCBs (20 μM each, dissolved in ethanol) were added and cells were incubated for 24 h before harvest of supernatants. Supernatants were diluted 1:2 with 80 μL acetate buffer 0.1 M (pH = 5.3). 100 μL of this dilution were further incubated with 100 μL of ammonium acetate buffer 0.1 M (pH = 5.3) and 5 μL of β-Glucuronidase/Arylsulfatase enzyme overnight in a drying oven at 37 °C for enzymatic hydrolysis to release conjugated compounds. 50 μL of a mix of internal standards (10 ng/mL) and 600 μL of methanol were added to the samples, then mixed by vortexing for 1 min and centrifuged for 10 min at 3400g. The individual supernatants were transferred to glass LC vials and evaporated to approximately 50 μL at 45 °C under a gentle stream of nitrogen. Finally, 0.1 mol/ L ammonium acetate buffer was added to a final volume of 100 μL and then transferred to an insert for analysis.
(§3) HEK293 cells overexpressing the respective CYP enzymes were seeded onto 6-well plates and were treated with or without 10 µM of the respective probe drug in DMEM medium for 24 hours at 37 °C and 5 % CO2. After incubation 200 µL DMEM were collected, cells were washed with PBS and adherent cells were lysed in 500 µL methanol for 20 minutes. Analytes were measured by LC-MS/MS either in methanol cell lysates or in DMEM supernatant.
(§4) 50 µL of DMEM samples were protein precipitated by adding 200 µL of methanol and were centrifuged for 20 min, 17,000 g and 4°C. Supernatants were diluted in water or 40 % methanol according to dilution factor. Methanol cell lysates were diluted ½ with water and centrifuged for 20 min, 17,000 g and 4°C. 5 µL of the processed samples were injected for LC-MS analysis.

[1] = PCB concentrations in plasma of HELPcB participants (2010); format: in vivo, human; conditions: sample of 2010; for concentration at 2010 calendar year / concentration at 2010 calendar year of sampling: human, plasma, other: occupational exposure
CYP2E1 = CYP2E1 (Homo sapiens, UniProt P05181); test: Metabolism in transgenic HEK293 cells expressing CYP2E1; conditions: 20 µM parent PCB, 24 h, supernatant
Method: as §1, §2, §3, §4

CYP2A6 = biological target: T1, CYP2A6 (Homo sapiens, UniProt P11509); test: Metabolism in transgenic HEK293 cells expressing CYP2A6; format: in vitro ADME; set-up: V5-His (vector-encoded) (C); expressed in transfected cells; conditions: 24 h; for Quantification of metabolites generated from PCB28, 52, and 101 / Metabolite concentration formed, range across cell clones: 20 µM parent PCB; for Quantification of metabolites generated from PCB28, 52, and 101: supernatant; for Metabolite concentration formed, range across cell clones: HEK293CYP2A6 cell lines
T1 sequence (P11509 1-494): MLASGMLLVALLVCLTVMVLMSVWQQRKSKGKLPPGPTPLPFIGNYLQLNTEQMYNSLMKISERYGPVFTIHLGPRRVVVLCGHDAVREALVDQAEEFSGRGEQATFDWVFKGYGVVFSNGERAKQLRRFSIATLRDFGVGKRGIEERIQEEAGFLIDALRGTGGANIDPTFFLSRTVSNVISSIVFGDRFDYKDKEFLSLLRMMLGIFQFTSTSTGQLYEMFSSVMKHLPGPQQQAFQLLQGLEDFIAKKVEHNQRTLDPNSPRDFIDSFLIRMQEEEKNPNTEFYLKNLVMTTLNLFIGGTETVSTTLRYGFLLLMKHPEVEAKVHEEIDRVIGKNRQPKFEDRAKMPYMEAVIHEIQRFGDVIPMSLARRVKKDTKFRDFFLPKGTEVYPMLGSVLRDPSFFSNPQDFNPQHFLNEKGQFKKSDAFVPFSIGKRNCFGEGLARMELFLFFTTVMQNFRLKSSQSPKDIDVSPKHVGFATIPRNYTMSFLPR
Method: as §1, §2, §3, §4

Chain of CYP3A4 (P08684 whole entry): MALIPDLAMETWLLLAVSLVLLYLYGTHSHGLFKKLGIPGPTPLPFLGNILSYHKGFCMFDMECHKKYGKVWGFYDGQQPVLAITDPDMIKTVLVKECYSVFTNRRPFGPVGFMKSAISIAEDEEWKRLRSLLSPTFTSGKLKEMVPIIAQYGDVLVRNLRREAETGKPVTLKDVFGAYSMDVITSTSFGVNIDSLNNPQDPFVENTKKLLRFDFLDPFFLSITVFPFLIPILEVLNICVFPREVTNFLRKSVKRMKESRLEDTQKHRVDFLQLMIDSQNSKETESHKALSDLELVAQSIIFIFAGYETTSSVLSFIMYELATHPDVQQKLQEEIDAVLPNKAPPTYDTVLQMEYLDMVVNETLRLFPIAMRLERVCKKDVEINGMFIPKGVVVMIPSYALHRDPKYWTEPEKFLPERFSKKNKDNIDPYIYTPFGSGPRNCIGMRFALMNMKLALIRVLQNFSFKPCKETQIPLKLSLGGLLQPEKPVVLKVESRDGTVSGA
Chain of CYP2E1 (P05181 whole entry): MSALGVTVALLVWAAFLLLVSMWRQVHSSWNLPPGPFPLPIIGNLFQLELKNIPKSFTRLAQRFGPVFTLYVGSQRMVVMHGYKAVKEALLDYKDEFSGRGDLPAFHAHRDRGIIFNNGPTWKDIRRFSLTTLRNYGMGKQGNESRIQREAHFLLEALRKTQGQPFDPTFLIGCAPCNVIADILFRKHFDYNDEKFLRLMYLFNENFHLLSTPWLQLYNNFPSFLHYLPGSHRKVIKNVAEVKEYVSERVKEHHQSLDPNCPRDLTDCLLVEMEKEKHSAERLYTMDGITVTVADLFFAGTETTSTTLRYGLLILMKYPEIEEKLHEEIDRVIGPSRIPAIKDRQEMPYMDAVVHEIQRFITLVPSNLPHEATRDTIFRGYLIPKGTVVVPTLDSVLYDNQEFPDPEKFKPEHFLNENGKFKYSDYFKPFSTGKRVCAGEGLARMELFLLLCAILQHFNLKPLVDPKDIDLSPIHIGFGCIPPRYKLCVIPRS

Cc1ncc2n1-c1ccc(Cl)cc1C(c1ccccc1F)=NC2 [Midazolam, reference compound]
Conversion product (CYP3A4; HEK293CYP3A4, 10 µM substrate): 1-hydroxy-midazolam

Clc1cc(Cl)c(-c2cc(Cl)c(Cl)c(Cl)c2Cl)cc1Cl [PCB180]
concentration at 2010 calendar year ([1]; HELPcB participant AD): 1.16 ng/mL
concentration at 2010 calendar year ([1]; HELPcB participant AE): 1.28 ng/mL
concentration at 2010 calendar year ([1]; HELPcB participant eight): 0.377 ng/mL
concentration at 2010 calendar year ([1]; HELPcB participant five): 0.951 ng/mL
concentration at 2010 calendar year ([1]; HELPcB participant four): 0.508 ng/mL
concentration at 2010 calendar year of sampling ([1]; HELPcB participant one): 0.998 ng/mL
concentration at 2010 calendar year ([1]; HELPcB participant seven): 0.934 ng/mL
concentration at 2010 calendar year ([1]; HELPcB participant six): 8.85 ng/mL
concentration at 2010 calendar year ([1]; HELPcB participant three): 0.95 ng/mL
concentration at 2010 calendar year of sampling ([1]; HELPcB participant two): 0.612 ng/mL

Oc1cc(Cl)c(-c2cc(Cl)c(Cl)cc2Cl)cc1Cl [4´-OHCB101, 2,2′,4,5,5′-Pentachloro-4′-biphenylol]
Quantification of metabolites generated from PCB28, 52, and 101 (CYP3A4; CYP3A4 Clone D10): <LOQ
Quantification of metabolites generated from PCB28, 52, and 101 (CYP3A4; CYP3A4 Clone E6): <LOQ
Quantification of metabolites generated from PCB28, 52, and 101 (CYP2E1; CYP2E1 Clone B4): 3,84 nM
Quantification of metabolites generated from PCB28, 52, and 101 (CYP2E1; CYP2E1 Clone B5): 4,02 nM
Quantification of metabolites generated from PCB28, 52, and 101 (CYP2E1; CYP2E1 Clone E6): 5,08 nM
Quantification of metabolites generated from PCB28, 52, and 101 (CYP2A6; CYP2A6 Clone B7): 441,30 nM
Quantification of metabolites generated from PCB28, 52, and 101 (CYP2A6; CYP2A6 Clone C4): 272,55 nM
Quantification of metabolites generated from PCB28, 52, and 101 (CYP2A6; CYP2A6 Clone C5): 55,93 nM
Metabolite concentration formed, range across cell clones (CYP2A6): 19.15- 151.1 µg/L and 55.93–441.3 nM

O=c1ccc2ccccc2o1 [Coumarin, reference compound]
Conversion product (CYP2A6; HEK293CYP2A6, 10 µM substrate): 7-hydroxycoumarin

Oc1cc(Cl)cc(-c2cc(Cl)c(Cl)cc2Cl)c1Cl [3´-OHCB101, 2,2′,4,5,5′-pentachloro-3′-biphenylol]
Quantification of metabolites generated from PCB28, 52, and 101 (CYP3A4; CYP3A4 Clone D10): <LOQ
Quantification of metabolites generated from PCB28, 52, and 101 (CYP3A4; CYP3A4 Clone E6): <LOQ
Quantification of metabolites generated from PCB28, 52, and 101 (CYP2E1; CYP2E1 Clone B4): <LOQ
Quantification of metabolites generated from PCB28, 52, and 101 (CYP2E1; CYP2E1 Clone B5): <LOQ
Quantification of metabolites generated from PCB28, 52, and 101 (CYP2E1; CYP2E1 Clone E6): <LOQ
Quantification of metabolites generated from PCB28, 52, and 101 (CYP2A6; CYP2A6 Clone B7): 39,4 nM
Quantification of metabolites generated from PCB28, 52, and 101 (CYP2A6; CYP2A6 Clone C4): 24,09 nM
Quantification of metabolites generated from PCB28, 52, and 101 (CYP2A6; CYP2A6 Clone C5): 4,2 nM
Metabolite concentration formed, range across cell clones (CYP2A6): 1.44–13.5 µg/L and 4.2–39.4 nM

Clc1cc(Cl)c(-c2ccc(Cl)c(Cl)c2Cl)cc1Cl [PCB138]
Concentration in plasma ([1]; HELPcB participant AD): 0.984 ng/mL
Concentration in plasma ([1]; HELPcB participant AE): 0.773 ng/mL
Concentration in plasma ([1]; HELPcB participant eight): 0.358 ng/mL
Concentration in plasma ([1]; HELPcB participant five): 1.886 ng/mL
Concentration in plasma ([1]; HELPcB participant four): 0.610 ng/mL
Concentration in plasma ([1]; HELPcB participant one): 2.083 ng/mL
Concentration in plasma ([1]; HELPcB participant seven): 0.738 ng/mL
Concentration in plasma ([1]; HELPcB participant six): 14.883 ng/mL
Concentration in plasma ([1]; HELPcB participant three): 1.047 ng/mL
Concentration in plasma ([1]; HELPcB participant two): 0.718 ng/mL

Clc1cc(Cl)c(-c2cc(Cl)c(Cl)cc2Cl)cc1Cl [PCB153]
Concentration in plasma ([1]; HELPcB participant AD): 1.397 ng/mL
Concentration in plasma ([1]; HELPcB participant AE): 1.227 ng/mL
Concentration in plasma ([1]; HELPcB participant eight): 0.59 ng/mL
Concentration in plasma ([1]; HELPcB participant five): 1.765 ng/mL
Concentration in plasma ([1]; HELPcB participant four): 0.855 ng/mL
Concentration in plasma ([1]; HELPcB participant one): 1.907 ng/mL
Concentration in plasma ([1]; HELPcB participant seven): 1.081 ng/mL
Concentration in plasma ([1]; HELPcB participant six): 15.630 ng/mL
Concentration in plasma ([1]; HELPcB participant three): 1.254 ng/mL
Concentration in plasma ([1]; HELPcB participant two): 0.945 ng/mL

— article PMC11489226 (Archives of Toxicology, 2024)
